Values after ≈ are worked out from the molar mass of the structure shown.
How the values were obtained:
[1] = Kinetic solubility of the compound; assay type: physicochemical; conditions: read-out: Kinetic_solubility
[2] = Intrinsic clearance in mouse liver microsomes after 1 hr by LC-MS/MS analysis; assay type: ADME, Microsome; conditions: read-out: CLH
[3] = target: T1, Phosphatidylinositol 4,5-bisphosphate 3-kinase catalytic subunit alpha isoform (Homo sapiens, UniProt P42336)
Description: Inhibition of PI3Kalpha in human MCF7-neo/Her2 cells assessed as reduction of AKT phosphorylation at S473

[4] = target: T1, Phosphatidylinositol 4,5-bisphosphate 3-kinase catalytic subunit alpha isoform; remark: listed apart in the source
Description: Inhibition of PI3Kalpha (unknown origin) assessed as 3,4,5-inositoltriphosphate formation after 30 mins by fluorescence polarization assay

cells = conditions: Homo sapiens
Description: Cytotoxicity against human MCF7-neo/Her2 cells after 3 to 4 days by CellTitre-Glo assay

Mus musculus [5] = test: Unbound AUC in nude mouse at 1 mg/kg, iv and 25 mg/kg, po; assay type: ADME, organism-based; conditions: in vivo
Mus musculus [6] = test: (§1) AUCtotal in nude mouse at 1 mg/kg, iv and 25 mg/kg, po; assay type: ADME, organism-based, Plasma; conditions: in vivo
Mus musculus [7] = test: Unbound clearance in nude mouse at 1 mg/kg, iv and 25 mg/kg, po; assay type: ADME, organism-based; conditions: in vivo
[8] = (§2) Plasma protein binding in mouse by equilibrium dialysis; assay type: ADME, cell-free; conditions: read-out: PPB (converted)
[9] = Oral bioavailability in mouse; assay type: ADME, organism-based; conditions: in vivo
[10] = Plasma protein binding in human; assay type: ADME, cell-free; conditions: read-out: PPB (converted)
[11] = Plasma protein binding in rat; assay type: ADME, cell-free; conditions: read-out: PPB (converted)
[12] = target: Serine/threonine-protein kinase mTOR (Homo sapiens, UniProt P42345); test: Inhibition of mTOR (unknown origin)
[13] = target: DNA-dependent protein kinase catalytic subunit (Homo sapiens, UniProt P78527); test: Inhibition of DNA-dependent protein kinase (unknown origin)
[14] = target: Phosphatidylinositol 4-phosphate 3-kinase C2 domain-containing subunit alpha (Homo sapiens, UniProt O00443); test: Inhibition of PI3KC2alpha (unknown origin)
Phosphatidylinositol 4-phosphate 3-kinase C2 domain-containing subunit alpha, sequence (O00443 whole entry, the tested form may be a part): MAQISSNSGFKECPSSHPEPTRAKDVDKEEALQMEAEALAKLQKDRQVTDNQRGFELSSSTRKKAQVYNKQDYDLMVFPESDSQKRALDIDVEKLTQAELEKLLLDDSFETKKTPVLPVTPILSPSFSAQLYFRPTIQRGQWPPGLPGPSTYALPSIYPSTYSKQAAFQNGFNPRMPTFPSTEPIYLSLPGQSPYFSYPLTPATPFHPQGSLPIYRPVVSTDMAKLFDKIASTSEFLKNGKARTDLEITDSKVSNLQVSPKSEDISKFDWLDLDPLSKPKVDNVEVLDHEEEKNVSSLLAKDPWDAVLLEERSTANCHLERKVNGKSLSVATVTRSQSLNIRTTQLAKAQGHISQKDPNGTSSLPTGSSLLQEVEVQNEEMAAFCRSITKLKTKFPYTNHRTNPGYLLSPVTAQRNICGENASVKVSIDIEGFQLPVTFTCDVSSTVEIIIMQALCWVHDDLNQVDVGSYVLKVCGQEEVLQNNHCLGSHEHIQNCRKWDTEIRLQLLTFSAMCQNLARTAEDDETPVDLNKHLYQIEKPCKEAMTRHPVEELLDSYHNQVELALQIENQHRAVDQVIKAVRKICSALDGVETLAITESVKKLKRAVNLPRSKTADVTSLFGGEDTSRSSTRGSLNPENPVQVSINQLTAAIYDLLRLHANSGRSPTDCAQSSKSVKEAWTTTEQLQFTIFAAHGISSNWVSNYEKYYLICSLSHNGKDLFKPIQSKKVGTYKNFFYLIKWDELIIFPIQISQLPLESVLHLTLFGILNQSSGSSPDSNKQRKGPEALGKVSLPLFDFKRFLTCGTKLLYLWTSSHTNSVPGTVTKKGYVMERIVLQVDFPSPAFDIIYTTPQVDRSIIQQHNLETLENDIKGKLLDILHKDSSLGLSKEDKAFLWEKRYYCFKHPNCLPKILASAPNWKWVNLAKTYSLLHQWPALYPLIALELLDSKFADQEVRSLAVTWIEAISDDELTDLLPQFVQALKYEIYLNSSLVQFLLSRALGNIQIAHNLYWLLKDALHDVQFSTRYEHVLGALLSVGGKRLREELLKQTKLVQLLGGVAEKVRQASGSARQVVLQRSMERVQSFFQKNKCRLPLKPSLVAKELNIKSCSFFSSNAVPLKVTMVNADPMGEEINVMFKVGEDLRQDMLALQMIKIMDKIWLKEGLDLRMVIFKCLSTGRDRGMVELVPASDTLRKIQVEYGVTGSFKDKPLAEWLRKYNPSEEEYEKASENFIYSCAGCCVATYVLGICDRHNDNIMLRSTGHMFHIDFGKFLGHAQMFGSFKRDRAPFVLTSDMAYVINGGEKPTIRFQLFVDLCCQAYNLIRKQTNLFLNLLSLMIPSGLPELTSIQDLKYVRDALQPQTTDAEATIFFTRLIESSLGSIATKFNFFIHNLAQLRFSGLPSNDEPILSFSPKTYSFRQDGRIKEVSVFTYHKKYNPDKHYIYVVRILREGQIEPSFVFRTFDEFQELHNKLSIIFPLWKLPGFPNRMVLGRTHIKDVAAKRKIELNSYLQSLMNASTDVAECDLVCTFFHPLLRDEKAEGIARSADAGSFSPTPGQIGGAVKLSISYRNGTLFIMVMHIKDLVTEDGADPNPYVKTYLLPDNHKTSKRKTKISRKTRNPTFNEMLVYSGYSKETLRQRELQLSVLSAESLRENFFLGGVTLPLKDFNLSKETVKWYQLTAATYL

PC-3 = test: Cytotoxicity against human PC3 cells; assay type: functional, cell-based
[15] = Oral bioavailability in Sprague-Dawley rat; assay type: ADME, organism-based; conditions: in vivo
[16] = Plasma clearance in Sprague-Dawley rat; assay type: ADME, organism-based
[17] = target: Phosphatidylinositol 3-kinase catalytic subunit type 3 (Homo sapiens, UniProt Q8NEB9); test: Inhibition of human VPS34
Mus musculus [18] = test: In vivo inhibition of PI3Kalpha in human MCF7-neo/Her2 cells xenografted in nude mouse assessed as reduction in AKT phosphorylation at S473 at 2.8 mg/kg, po measured after 1 hr; assay type: functional; set-up: scale not given: the % may be the effect or the level left
Mus musculus [19] = test: Toxicity in nude mouse xenografted with human MCF7-neo/Her2 cells assessed as body weight loss relative to vehicle-treated control; assay type: organism-based
[20] = target: Phosphatidylinositol 4-phosphate 3-kinase C2 domain-containing subunit beta (Homo sapiens, UniProt O00750); test: Inhibition of PI3KC2beta (unknown origin)
Phosphatidylinositol 4-phosphate 3-kinase C2 domain-containing subunit beta, sequence (O00750 whole entry, the tested form may be a part): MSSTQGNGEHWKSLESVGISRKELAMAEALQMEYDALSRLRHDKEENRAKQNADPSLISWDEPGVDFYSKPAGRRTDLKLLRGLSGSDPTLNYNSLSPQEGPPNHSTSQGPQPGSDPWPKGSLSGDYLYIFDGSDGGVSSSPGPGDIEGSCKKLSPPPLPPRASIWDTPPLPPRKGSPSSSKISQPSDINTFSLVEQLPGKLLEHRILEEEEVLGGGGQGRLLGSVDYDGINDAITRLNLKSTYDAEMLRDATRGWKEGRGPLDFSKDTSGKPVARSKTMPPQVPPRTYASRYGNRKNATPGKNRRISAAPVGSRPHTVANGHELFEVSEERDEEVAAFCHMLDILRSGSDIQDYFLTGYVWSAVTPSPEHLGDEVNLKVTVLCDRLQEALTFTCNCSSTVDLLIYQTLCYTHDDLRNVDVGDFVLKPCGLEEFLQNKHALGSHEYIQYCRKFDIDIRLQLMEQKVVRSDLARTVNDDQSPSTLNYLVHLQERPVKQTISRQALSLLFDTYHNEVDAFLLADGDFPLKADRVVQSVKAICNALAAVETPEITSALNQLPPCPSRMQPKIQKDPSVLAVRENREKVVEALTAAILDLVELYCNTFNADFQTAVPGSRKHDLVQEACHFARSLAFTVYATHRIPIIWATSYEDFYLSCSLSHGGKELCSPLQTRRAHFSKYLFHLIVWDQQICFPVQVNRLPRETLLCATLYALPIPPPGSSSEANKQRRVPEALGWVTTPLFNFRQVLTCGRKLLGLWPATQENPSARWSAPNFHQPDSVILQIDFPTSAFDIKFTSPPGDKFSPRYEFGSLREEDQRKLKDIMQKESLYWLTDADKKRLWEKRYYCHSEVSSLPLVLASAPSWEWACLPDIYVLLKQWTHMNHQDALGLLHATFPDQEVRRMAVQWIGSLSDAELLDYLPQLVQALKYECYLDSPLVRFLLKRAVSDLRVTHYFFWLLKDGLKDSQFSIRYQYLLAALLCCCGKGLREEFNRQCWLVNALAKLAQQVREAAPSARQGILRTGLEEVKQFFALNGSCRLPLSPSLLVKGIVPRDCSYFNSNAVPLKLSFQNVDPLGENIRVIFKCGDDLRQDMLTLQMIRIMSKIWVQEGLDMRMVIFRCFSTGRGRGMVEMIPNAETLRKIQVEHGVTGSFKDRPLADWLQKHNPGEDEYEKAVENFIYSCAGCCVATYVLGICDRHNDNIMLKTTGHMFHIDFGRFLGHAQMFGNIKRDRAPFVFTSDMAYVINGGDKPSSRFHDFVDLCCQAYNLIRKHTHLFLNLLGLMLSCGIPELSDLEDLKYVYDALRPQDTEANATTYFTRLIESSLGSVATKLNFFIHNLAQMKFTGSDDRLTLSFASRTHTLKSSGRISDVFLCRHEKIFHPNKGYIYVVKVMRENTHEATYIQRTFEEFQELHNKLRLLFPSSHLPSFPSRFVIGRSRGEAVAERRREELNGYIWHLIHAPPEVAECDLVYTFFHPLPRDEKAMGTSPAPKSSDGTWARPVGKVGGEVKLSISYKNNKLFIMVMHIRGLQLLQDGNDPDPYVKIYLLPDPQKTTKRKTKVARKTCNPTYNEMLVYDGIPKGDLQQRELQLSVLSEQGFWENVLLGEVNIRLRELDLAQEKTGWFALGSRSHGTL

[21] = as §1; assay type: ADME, organism-based, Plasma; conditions: nude, plasma
Plasma = test: as §2; assay type: ADME, cell-free
[22] = Plasma clearance in nude mouse at 1 mg/kg, iv and 25 mg/kg, po; assay type: ADME, organism-based
[23] = target: T2, Phosphatidylinositol 4,5-bisphosphate 3-kinase catalytic subunit delta isoform (Homo sapiens) (UniProt O00329); conditions: 1 uM
T2 sequence (whole entry): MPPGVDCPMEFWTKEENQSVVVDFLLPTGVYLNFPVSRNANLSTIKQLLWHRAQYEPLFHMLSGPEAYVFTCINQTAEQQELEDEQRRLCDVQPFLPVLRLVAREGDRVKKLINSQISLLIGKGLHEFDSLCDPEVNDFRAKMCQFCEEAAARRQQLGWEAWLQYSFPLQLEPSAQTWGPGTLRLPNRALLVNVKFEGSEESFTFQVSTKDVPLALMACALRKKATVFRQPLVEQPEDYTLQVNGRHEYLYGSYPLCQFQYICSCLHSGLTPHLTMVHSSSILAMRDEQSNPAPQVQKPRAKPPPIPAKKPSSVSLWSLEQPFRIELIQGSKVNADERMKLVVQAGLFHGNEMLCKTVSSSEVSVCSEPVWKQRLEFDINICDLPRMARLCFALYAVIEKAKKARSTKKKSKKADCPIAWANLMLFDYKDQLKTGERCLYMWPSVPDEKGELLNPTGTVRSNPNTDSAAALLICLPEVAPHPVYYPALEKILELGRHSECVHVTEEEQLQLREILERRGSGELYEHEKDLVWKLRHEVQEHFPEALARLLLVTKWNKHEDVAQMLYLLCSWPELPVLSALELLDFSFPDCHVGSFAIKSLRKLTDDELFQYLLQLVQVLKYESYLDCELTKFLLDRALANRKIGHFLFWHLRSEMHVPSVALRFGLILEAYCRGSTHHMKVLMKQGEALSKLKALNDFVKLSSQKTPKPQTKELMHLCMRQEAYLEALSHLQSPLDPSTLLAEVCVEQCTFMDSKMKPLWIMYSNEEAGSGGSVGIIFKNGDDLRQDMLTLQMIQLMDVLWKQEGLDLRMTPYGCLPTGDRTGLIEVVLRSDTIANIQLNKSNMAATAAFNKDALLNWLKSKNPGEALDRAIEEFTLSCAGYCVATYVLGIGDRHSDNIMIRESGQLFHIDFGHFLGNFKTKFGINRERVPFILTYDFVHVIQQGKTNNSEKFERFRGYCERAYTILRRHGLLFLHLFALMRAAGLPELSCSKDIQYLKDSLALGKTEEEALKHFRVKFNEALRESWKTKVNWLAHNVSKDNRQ
Description: Inhibition of PI3Kdelta (unknown origin) at 1 uM

[24] = target: T1, Phosphatidylinositol 4,5-bisphosphate 3-kinase catalytic subunit alpha isoform; conditions: 1 uM
Description: Inhibition of PI3Kalpha (unknown origin) at 1 uM

animal or person [25] = conditions: Homo sapiens, po, 480 h, read-out: TGI
Description: Antitumor activity against human MCF7-neo/Her2 cells xenografted in nude mouse at 22.5 mg/kg, po qd for 20 days relative to vehicle-treated control

animal or person [26] = conditions: Homo sapiens, po, 480 h, read-out: TGI; remark: listed apart in the source
Description: Antitumor activity against human MCF7-neo/Her2 cells xenografted in nude mouse at 11.25 mg/kg, po qd for 20 days relative to vehicle-treated control

Mus musculus [27] = test: Unbound AUC in nude mouse at 100 mg/kg, po; assay type: ADME, organism-based; set-up: dose 100 mg/kg, route oral; conditions: in vivo
[28] = AUCtotal in nude mouse at 100 mg/kg, po; assay type: ADME, organism-based; set-up: time AUCmax, dose 100 mg/kg, route oral; conditions: plasma

T1 sequence (P42336 whole entry, canonical isoform): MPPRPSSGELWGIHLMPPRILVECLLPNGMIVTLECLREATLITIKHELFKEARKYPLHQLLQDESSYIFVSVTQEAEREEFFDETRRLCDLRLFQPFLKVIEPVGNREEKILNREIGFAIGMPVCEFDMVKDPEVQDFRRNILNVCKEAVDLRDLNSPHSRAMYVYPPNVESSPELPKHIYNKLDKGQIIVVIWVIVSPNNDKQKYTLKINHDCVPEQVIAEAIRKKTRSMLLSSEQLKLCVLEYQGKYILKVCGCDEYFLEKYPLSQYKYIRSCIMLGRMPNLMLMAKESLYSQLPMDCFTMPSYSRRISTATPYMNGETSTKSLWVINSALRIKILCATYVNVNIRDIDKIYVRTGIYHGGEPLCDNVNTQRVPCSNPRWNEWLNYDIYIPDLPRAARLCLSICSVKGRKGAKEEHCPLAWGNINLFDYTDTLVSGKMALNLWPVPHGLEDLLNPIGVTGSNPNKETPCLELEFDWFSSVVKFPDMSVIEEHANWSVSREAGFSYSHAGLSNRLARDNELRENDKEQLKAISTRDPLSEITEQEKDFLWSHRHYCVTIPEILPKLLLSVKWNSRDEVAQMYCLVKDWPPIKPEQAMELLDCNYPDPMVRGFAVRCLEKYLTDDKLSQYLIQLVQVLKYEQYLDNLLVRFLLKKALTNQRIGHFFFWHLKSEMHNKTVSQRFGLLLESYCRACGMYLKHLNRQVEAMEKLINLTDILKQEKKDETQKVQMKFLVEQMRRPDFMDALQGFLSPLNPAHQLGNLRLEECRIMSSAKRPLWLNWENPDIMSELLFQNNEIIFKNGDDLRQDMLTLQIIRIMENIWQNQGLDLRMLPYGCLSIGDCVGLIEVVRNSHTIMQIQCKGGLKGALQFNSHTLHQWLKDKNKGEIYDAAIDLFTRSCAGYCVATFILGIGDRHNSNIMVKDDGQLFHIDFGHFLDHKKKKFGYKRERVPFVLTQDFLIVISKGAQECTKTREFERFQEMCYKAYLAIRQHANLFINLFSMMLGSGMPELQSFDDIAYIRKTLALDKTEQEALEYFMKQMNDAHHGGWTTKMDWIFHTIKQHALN

## Cc1nc(-c2cn3c(n2)-c2ccc(-c4cnn(CCN5CCOCC5)c4)cc2OCC3)n(C(C)C)n1
[1]
  solubility kinetic: 52.3 µM (≈ 25.6 µg/mL)
[2]
  CLint scaled: 89.4 mL/min/kg
[3]
  IC50: 35 nM
[4]
  Ki: 0.3 nM
cells
  IC50: 248 nM

## CC(C)n1ncnc1-c1cn2c(n1)-c1ccc(-c3cnn(CC(C)(C)O)c3)cc1OCC2
Mus musculus [5]
  fAUC: 2.7 µM·h
Mus musculus [6]
  AUC: 156 µM·h
Mus musculus [7]
  CL free: 282 mL/min/kg
[8]
  fraction unbound: 0.017
[1]
  solubility kinetic: 12.4 µM (≈ 5.38 µg/mL)
[2]
  CLint scaled: 44.3 mL/min/kg
[3]
  IC50: 9.4 nM
[4]
  Ki: 0.14 nM
cells
  IC50: 81 nM

## Cc1nc(-c2cn3c(n2)-c2ccc(-c4cnn(C5CN(C(=O)[C@H](C)O)C5)c4)cc2OCC3)n(C(C)C)n1
[1]
  solubility kinetic: 78.2 µM (≈ 39.3 µg/mL)
[2]
  CLint scaled: 23 mL/min/kg
[3]
  IC50: 0.93 nM
[4]
  Ki: 0.34 nM
cells
  IC50: 102 nM

## Cc1nc(-c2cn3c(n2)-c2ccc(-c4cnn(CCO)c4)cc2OCC3)n(C(C)C)n1
Mus musculus [5]
  fAUC: 5.2 µM·h
Mus musculus [6]
  AUC: 291 µM·h
Mus musculus [7]
  CL free: 83 mL/min/kg
[8]
  fraction unbound: 0.018
[2]
  CLint scaled: 68.1 mL/min/kg
[3]
  IC50: 4.5 nM
cells
  IC50: 138 nM

## CC(C)n1ncnc1-c1cn2c(n1)-c1ccc(-c3cn[nH]c3)cc1OCC2
[1]
  solubility kinetic: < 1 µM
[2]
  CLint scaled: 550 mL/min/kg
[4]
  Ki: 0.31 nM
cells
  IC50: 218 nM

## OCCn1cc(-c2ccc3c(c2)OCCn2cc(-c4ncnn4CC(F)(F)F)nc2-3)cn1
[1]
  solubility kinetic: 7.6 µM (≈ 3.39 µg/mL)
[2]
  CLint scaled: 28 mL/min/kg
[3]
  IC50: 2.9 nM
[4]
  Ki: < 1 nM
cells
  IC50: 66 nM

## Cc1nc(-c2cn3c(n2)-c2ccc(-c4cnn(C(C)(C)C(N)=O)c4)cc2OCC3)n(C(C)C)n1 [TASELISIB]
[9]
  bioavailability: 100%
[10]
  fraction unbound: 0.24
[11]
  fraction unbound: 0.02
[12]
  Ki: 1200 nM
[13]
  IC50: > 4.8 µM
[14]
  IC50: > 10 µM
PC-3
  EC50: 571 nM
[15]
  bioavailability: 99%
[16]
  clearance: 1.8 mL/min/kg
[17]
  IC50: 374 nM
Mus musculus [18]
  Activity: 59%
Mus musculus [19]
  Activity: < 10%
[20]
  IC50: 292 nM
Mus musculus [5]
  fAUC: 42 µM·h
[21]
  AUC: 388 µM·h
Mus musculus [7]
  CL free: 25 mL/min/kg
Plasma
  PPB: 89.3%
[22]
  clearance: 2.7 mL/min/kg
[1]
  solubility kinetic: 33.1 µM (≈ 15.2 µg/mL)
[2]
  CLint scaled: 41.1 mL/min/kg
[23]
  inhibition: 97.9%
[24]
  inhibition: 98.6%
cells
  IC50: 25 nM
Animal or person [25]
  inhibition in vivo at 22.5 mg/kg: 123%
Animal or person [26]
  inhibition in vivo at 11.25 mg/kg: 103%

## CS(=O)(=O)N1CCN(Cc2cc3nc(-c4cccc5[nH]ncc45)nc(N4CCOCC4)c3s2)CC1 [PICTILISIB]
Mus musculus [19]
  Activity: < 10%
Mus musculus [27]
  fAUC: 3.5 µM·h
[28]
  AUC: 80.3 µM·h

## Cc1nc(-c2cn3c(n2)-c2ccc(-c4cnn(C)c4)cc2OCC3)n(C(C)C)n1
[1]
  solubility kinetic: 2 µM (≈ 0.779 µg/mL)
[2]
  CLint scaled: 82 mL/min/kg
[3]
  IC50: 0.71 nM
[4]
  Ki: 0.29 nM
cells
  IC50: 157 nM

## CC(C)n1ncnc1-c1cn2c(n1)-c1ccc(-c3cnn(CCO)c3)cc1OCC2
[1]
  solubility kinetic: 5.1 µM (≈ 2.07 µg/mL)
[2]
  CLint scaled: 42.9 mL/min/kg
[3]
  IC50: 5.4 nM
[4]
  Ki: 0.17 nM
cells
  IC50: 92 nM

## CC(C)n1ncnc1-c1nc2c(s1)CCOc1cc(-c3cnn(CCO)c3)ccc1-2
Mus musculus [27]
  fAUC: 0.55 µM·h
[28]
  AUC: 275 µM·h
Mus musculus [5]
  fAUC: 0.22 µM·h
[21]
  AUC: 112 µM·h
Mus musculus [7]
  CL free: 4750 mL/min/kg
[8]
  fraction unbound: 0.002
cells
  IC50: 195 nM

## Cc1nc(-c2cn3c(n2)-c2ccc(-c4cnn(C5CN(CCO)C5)c4)cc2OCC3)n(C(C)C)n1
[1]
  solubility kinetic: 109 µM (≈ 51.7 µg/mL)
[2]
  CLint scaled: 58 mL/min/kg
[3]
  IC50: 1.4 nM
[4]
  Ki: 0.11 nM
cells
  IC50: 120 nM

## Cc1nc(-c2cn3c(n2)-c2ccc(-c4cnn(CCO)c4)cc2OCC3)n(C)n1
[1]
  solubility kinetic: 2.4 µM (≈ 0.939 µg/mL)
[2]
  CLint scaled: 100 mL/min/kg
[4]
  Ki: 2.8 nM
cells
  IC50: 1400 nM

## Cc1n[nH]c(-c2cn3c(n2)-c2ccc(-c4cnn(CCO)c4)cc2OCC3)n1
[1]
  solubility kinetic: 95.8 µM (≈ 36.2 µg/mL)
[4]
  Ki: 21.1 nM
cells
  IC50: > 10000 nM

From ChEMBL document CHEMBL2384988, “Discovery of 2-{3-[2-(1-isopropyl-3-methyl-1H-1,2-4-triazol-5-yl)-5,6-dihydrobenzo[f]imidazo[1,2-d][1,4]oxazepin-9-yl]-1H-pyrazol-1-yl}-2-methylpropanamide (GDC-0032): a β-sparing phosphoinositide 3-kinase inhibitor with high unbound exposure and robust in vivo antitumor activity” (J Med Chem, 2013)
